In US10472341B2, “Bicyclic tetrahydrothiazepine derivatives useful for the treatment of neoplastic and/or infectious diseases” (APEIRON BIOLOGICS AG, priority 2015, dated 2019):

These molecules were tested on aCD3/aCD28-stimulated human CD4+-T-cells (assay: IL-2 production and activation markers in aCD3/aCD28 stimulated isolated human CD4+-T-cells). Conditions: IL-2 production at 3 μM compound.
Assay type: cell-based
Description: • Buffy coat content was transferred to sterile plastic bottle and filled up to 480 ml with PBS, and distributed equally to 16×50 ml tubes (30 ml/tube) • Underlayed with ˜11 ml Lymphoprep and centrifuged 20 min (2200 rpm) • The interphase containing lymphocytes was taken off with transfer pipette, cells were washed twice with PBS and pooled to one tube to determine cell count (Coulter Diff ACT) Isolation of Immune Cell Subfractions from PBMCs by MACS • PBMCs were resuspended in MACS buffer (80 μl MACS-buffer/10^7 cells) and cells were isolated with Auto-MACS device using respective kits following manufacturer's recommendations TCR Stimulation and Measurement of T Cell Activation
Isolated T cells were plated in Xvivo medium at 1.5*10 ^5 cells per in 96 well culture plates and TCR-stimulated with anti-CD3/28 mAbs in the presence of compound as indicated. Cytokine production was determined at 24 h or 48 h following TCR stimulation in cell culture supernatants using commercially available ELISA kits (BD and eBioscience) as recommended by the manufacturer. T cell proliferation and CD25 expression (CD25-PC5 reagent purchased from Beckman Coulter) was determined by flow cytometry (Beckman-Coulter FC500) and analysed with Kaluza Software. For measurement of CD69 expression, isolated CD4 and CD8 T cells were plated in Xvivo medium at […] per in 96 well culture plates and TCR-stimulated with anti-CD3/28 mAbs in the presence of compound. CD69 expression was determined at 24 h following TCR stimulation by flow cytometry (CD4eF450, CD8APCeF780 and CD69-PC7 reagent purchased from eBioscience) and analysed with Kaluza Software.
Buffy coats were obtained from Austrian Red Cross, diluted 3 fold with PBS and layered onto an isotonic Ficoll separating solution d=1.077 g/m in 50 ml centrifuge tubes. The tubes were centrifuged at 914 g for 25 min at room temperature with the brakes off. The PBMC layer was removed and washed twice with ice-cold PBS. CD4 T cells were isolated using CD4 microbeads (Milteny) and the AutoMACS device following manufacturer's instructions.
Compound examples of the present invention were classified according to the following activity criteria and are listed in Table 4a: • Activity Class A: IL-2 production at 3 μM compound concentration >10 ng/mL • Activity Class B: IL-2 production at 3 μM compound concentration between 2-10 ng/mL • Activity Class C: IL-2 production at 3 μM compound concentration between 2-fold increase as compared to mean IL-2 production of stimulated cells in the absence of compounds and <2 ng/mL

| SMILES | Activity Class CD4+ |
| --- | --- |
| CCCCNC(=O)c1ccc2c(c1)N(Cc1ccc(N3CCOCC3)cc1)C(=O)[C@@H](N)CS2.Cl [Example 13, (3R)-3-amino-N-butyl-5-{[4-(morpholin-4-yl)phenyl]methyl}-4-oxo-2,3,4,5-tetrahydro-1,5-benzothiazepine-7-carboxamide hydrochloride] | C (IL-2 production at 3 μM compound concentration between 2-fold increase as compared to mean IL-2 production of stimulated cells in the absence of compounds and <2 ng/mL) |
| Cl.N[C@H]1CSc2cc(F)c(C(=O)NC3CCOCC3)cc2N(Cc2ccc(OC(F)(F)F)cc2)C1=O [Example 14, (3R)-3-amino-8-fluoro-N-(oxan-4-yl)-4-oxo-5-{[4-(trifluoromethoxy)phenyl]methyl}-2,3,4,5-tetrahydro-1,5-benzothiazepine-7-carboxamide hydrochloride] | C (IL-2 production at 3 μM compound concentration between 2-fold increase as compared to mean IL-2 production of stimulated cells in the absence of compounds and <2 ng/mL) |
| CC(C)NC(=O)c1cc2c(cc1F)SC[C@H](N)C(=O)N2Cc1ccc(OC(F)(F)F)cc1.Cl [Example 15, (3R)-3-amino-8-fluoro-4-oxo-N-(propan-2-yl)-5-{[4-(trifluoromethoxy)phenyl]-methyl}-2,3,4,5-tetrahydro-1,5-benzothiazepine-7-carboxamide hydrochloride] | B (IL-2 production at 3 μM compound concentration between 2-10 ng/mL) |
| Cl.N[C@H]1CSc2cc(F)c(C(=O)NCc3ccccc3)cc2N(Cc2ccc(OC(F)(F)F)cc2)C1=O [Example 16, (3R)-3-amino-N-benzyl-8-fluoro-4-oxo-5-{[4-(trifluoromethoxy)phenyl]methyl}-2,3,4,5-tetrahydro-1,5-benzothiazepine-7-carboxamide hydrochloride] | B (IL-2 production at 3 μM compound concentration between 2-10 ng/mL) |
| CC(=O)NCCCCCOc1ccc(CNC(=O)c2ccc3c(c2)N(Cc2ccc(OC(F)(F)F)cc2)C(=O)[C@@H](N)CS3)cc1.Cl [Example 19, (3R)-3-amino-N-({4-[(5-acetamidopentyl)oxy]phenyl}methyl)-4-oxo-5-{[4-(trifluoromethoxy)phenyl]methyl}-2,3,4,5-tetrahydro-1,5-benzothiazepine-7-carboxamide hydrochloride] | C (IL-2 production at 3 μM compound concentration between 2-fold increase as compared to mean IL-2 production of stimulated cells in the absence of compounds and <2 ng/mL) |
| CC(C)(C)c1cc(NC(=O)c2ccc3c(c2)N(Cc2ccc(Cl)cc2)C(=O)[C@@H](N)CS3)no1.Cl [Example 24, (3R)-3-amino-N-(5-tert-butyl-1,2-oxazol-3-yl)-5-[(4-chlorophenyl)methyl]-4-oxo-2,3,4,5-tetrahydro-1,5-benzothiazepine-7-carboxamide hydrochloride] | C (IL-2 production at 3 μM compound concentration between 2-fold increase as compared to mean IL-2 production of stimulated cells in the absence of compounds and <2 ng/mL) |
| Cl.N[C@H]1CSc2ccc(C(=O)NCc3ccc(F)cc3)cc2N(Cc2ccc(-c3csnn3)cc2)C1=O [Example 32, (3R)-3-amino-N-[(4-fluorophenyl)methyl]-4-oxo-5-{[4-(1,2,3-thiadiazol-4-yl)phenyl]-methyl}-2,3,4,5-tetrahydro-1,5-benzothiazepine-7-carboxamide hydrochloride] | C (IL-2 production at 3 μM compound concentration between 2-fold increase as compared to mean IL-2 production of stimulated cells in the absence of compounds and <2 ng/mL) |
| N[C@H]1CSc2ccc(C(=O)NCC3CCOCC3)cc2N(Cc2ccc(F)cc2)C1=O [Example 45, (3R)-3-amino-5-[(4-fluorophenyl)methyl]-N-(oxan-4-ylmethyl)-4-oxo-2,3,4,5-tetrahydro-1,5-benzothiazepine-7-carboxamide] | C (IL-2 production at 3 μM compound concentration between 2-fold increase as compared to mean IL-2 production of stimulated cells in the absence of compounds and <2 ng/mL) |
